Source: patent US12251387B2, “Substituted quinoxalines and benzo[c][1,2,5]oxadiazoles as DNA-PK inhibitors” (Vertex Pharmaceuticals Incorporated, priority 2013, dated 2025)

Target: DNA-PK (Homo sapiens, UniProt P78527)
Experiment: DNA-PK Inhibition Assay (standard radiometric kinase assay, 33P-ATP, peptide substrate)
Format: biochemical
Settings: radiometric assay, approximately 6 nM DNA-PK, 100 μM ATP, 45 min; fit to competitive tight-binding inhibition; read-out: Ki for the inhibition of DNA-PK
Procedure: Compounds were screened for their ability to inhibit DNA-PK kinase using a standard radiometric assay. Briefly, in this kinase assay the transfer of the terminal ^33P-phosphate in ^33P-ATP to a peptide substrate is interrogated. The assay was carried out in 384-well plates to a final volume of 50 μL per well containing approximately 6 nM DNA-PK, 50 mM HEPES (pH 7.5), 10 mM MgCl2, 25 mM NaCl, 0.01% BSA, 1 mM DTT, 10 μg/mL sheared double-stranded DNA (obtained from Sigma), 0.8 mg/mL DNA-PK peptide (Glu-Pro-Pro-Leu-Ser-Gln-Glu-Ala-Phe-Ala-Asp-Leu-Trp-Lys-Lys-Lys, obtained from American Peptide), and 100 μM ATP. Accordingly, compounds of the invention were dissolved in DMSO to make 10 mM initial stock solutions. Serial dilutions in DMSO were then made to obtain the final solutions for the assay. A 0.75 μL aliquot of DMSO or inhibitor in DMSO was added to each well, followed by the addition of ATP substrate solution containing ^33P-ATP (obtained from Perkin Elmer). The reaction was started by the addition of DNA-PK, peptide and ds-DNA. After 45 min, the reaction was quenched with 25 μL of 5% phosphoric acid. The reaction mixture was transferred to MultiScreen HTS 384-well PH plates (obtained from Millipore), allowed to bind for one hour, and washed three times with 1% phosphoric acid. Following the addition of 50 μL of Ultima Gold™ high efficiency scintillant (obtained from Perkin Elmer), the samples were counted in a Packard TopCount NXT Microplate Scintillation and Luminescence Counter (Packard BioScience). The Ki values were calculated using Microsoft Excel Solver macros to fit the data to the kinetic model for competitive tight-binding inhibition.

| SMILES | Ki [nM] |
| --- | --- |
| Oc1nc(N[C@H]2CC[C@@H](Oc3cc(N4CCOCC4)cc4nccnc34)CC2)nc(C2CC2)n1 [Compound 600] | < 100 |
| Clc1nc(N[C@H]2CC[C@@H](Oc3cc(N4CCOCC4)cc4nccnc34)CC2)c2cn[nH]c2n1 [Compound 423] | < 100 |
| c1cnc2c(O[C@H]3CC[C@@H](Nc4ncc(-c5nnn[nH]5)cn4)CC3)cc(N3CCOCC3)cc2n1 [Compound 460] | < 100 |
| CCSc1nc(C)cc(N[C@H]2CC[C@@H](Oc3cc(N4CCOCC4)cc4nccnc34)CC2)n1 [Compound 635] | < 100 |
| Cn1cnc2c(N[C@H]3CC[C@@H](Oc4cc(N5CCOCC5)cc5nccnc45)CC3)ncnc21 [Compound 546] | < 100 |
| c1nc(N[C@H]2CC[C@@H](Oc3cc(N4CCOCC4)cc4nccnc34)CC2)c2c(n1)OCC2 [Compound 479] | < 100 |
| Clc1cnc(N[C@H]2CC[C@@H](Oc3cc(N4CCOCC4)cc4nccnc34)CC2)nc1 [Compound 485] | < 100 |
| c1cnc(N[C@H]2CC[C@@H](Oc3cc(N4CC5CC(C4)O5)cc4nccnc34)CC2)nc1 [Compound 291, N-[4-[7-(6-oxa-3-azabicyclo[3.1.1]heptan-3-yl)quinoxalin-5-yl]oxycyclohexyl]pyrimidin-2-amine] | < 100 |
| Cc1nccc(N[C@H]2CC[C@@H](Oc3cc(C4=CCOC4)cc4nccnc34)CC2)n1 [Compound 289] | < 100 |
| Cc1nc(N[C@H]2CC[C@@H](Oc3cc(N4CCOCC4)cc4nccnc34)CC2)cc(N(C)C)n1 [Compound 602] | < 100 |
| FC(F)(F)c1ccnc(N[C@H]2CC[C@@H](Oc3cc(N4CCOCC4)cc4nccnc34)CC2)c1 [Compound 589] | < 100 |
| COc1ncc(N[C@H]2CC[C@@H](Oc3cc(N4CCOCC4)cc4nccnc34)CC2)cn1 [Compound 574] | < 100 |
| c1cnc2c(O[C@H]3CC[C@@H](Nc4ncc(OCCN5CCCC5)cn4)CC3)cc(N3CCOCC3)cc2n1 [Compound 509] | < 100 |
| Clc1ccc(N[C@H]2CC[C@@H](Oc3cc(N4CCOCC4)cc4nccnc34)CC2)nn1 [Compound 40] | < 100 |
| OCCc1cnc(N[C@H]2CC[C@@H](Oc3cc(N4CCOCC4)cc4nccnc34)CC2)nc1 [Compound 481] | < 100 |
| Clc1ccnc(N[C@H]2CC[C@@H](Oc3cc(N4CCOCC4)cc4nccnc34)CC2)n1 [Compound 532] | < 100 |
| c1cnc2c(O[C@H]3CC[C@@H](Nc4ncc(C5CCNC5)cn4)CC3)cc(N3CCOCC3)cc2n1 (stereo partly shown) [Compound 569] | < 100 |
| OC(c1ccc(N[C@H]2CC[C@@H](Oc3cc(N4CCOCC4)cc4nccnc34)CC2)nc1)C(F)(F)F (stereo partly shown) [Compound 630] | < 100 |
| Cc1nc(N[C@H]2CC[C@@H](Oc3cc(N4CCOCC4)cc4nccnc34)CC2)cc(C2CC2)n1 [Compound 636] | < 100 |
| CNc1nccc(N[C@H]2CC[C@@H](Oc3cc(N4CCOCC4)cc4nccnc34)CC2)n1 [Compound 454] | < 100 |
| CN1CCN(c2cnc(N[C@H]3CC[C@@H](Oc4cc(N5CCOCC5)cc5nccnc45)CC3)nc2)CC1 [Compound 579] | < 100 |
| Cc1nccc(N(C)[C@H]2CC[C@@H](Oc3cc(N4CCOCC4)cc4nccnc34)CC2)n1 [Compound 399] | < 100 |
| CC(C)Oc1cc(N[C@H]2CC[C@@H](Oc3cc(N4CCOCC4)cc4nccnc34)CC2)ccn1 [Compound 349] | < 100 |
| CCc1ncnc(N[C@H]2CC[C@@H](Oc3cc(C4=CCOCC4)cc4nccnc34)CC2)c1F [Compound 295] | < 100 |
| c1cnc2c(O[C@H]3CC[C@@H](Nc4ncnc5ccoc45)CC3)cc(N3CCOCC3)cc2n1 [Compound 488] | < 100 |
| Cc1nccc(N[C@H]2CC[C@@H](Oc3cc(N4CCO[C@H](CO)C4)cc4nccnc34)CC2)n1 [Compound 320] | < 100 |

| SMILES | Ki [nM] |
| --- | --- |
| Cc1nccc(N[C@H]2CC[C@@H](Oc3cc(N4CC5CC(C4)O5)cc4nccnc34)CC2)n1 [Compound 353] | < 100 |
| c1cc(-c2nnco2)nc(N[C@H]2CC[C@@H](Oc3cc(N4CCOCC4)cc4nccnc34)CC2)n1 [Compound 461] | < 100 |
| OCc1cnc2cc(N3CCOCC3)cc(O[C@H]3CC[C@@H](Nc4ncccn4)CC3)c2n1 [Compound 617] | < 100 |
| Cc1ncc(N[C@H]2CC[C@@H](Oc3cc(N4CCOCC4)cc4nccnc34)CC2)nc1C [Compound 314] | < 100 |
| Cc1cc(N[C@H]2CC[C@@H](Oc3cc(N4CCOCC4)cc4nccnc34)CC2)n[nH]1 [Compound 637] | < 100 |
| c1cc2c(c(N[C@H]3CC[C@@H](Oc4cc(N5CCOCC5)cc5nccnc45)CC3)c1)OCC2 [Compound 338] | < 100 |
| c1cnc2c(O[C@H]3CC[C@@H](Nc4ccc(OCCN5CCCCC5)cn4)CC3)cc(N3CCOCC3)cc2n1 [Compound 640] | < 100 |
| OCc1cccnc1N[C@H]1CC[C@@H](Oc2cc(N3CCOCC3)cc3nccnc23)CC1 [Compound 584] | < 100 |
| c1nc(N[C@H]2CC[C@@H](Oc3cc(N4CCOCC4)cc4nccnc34)CC2)cc(OC2CNC2)n1 [Compound 480] | < 100 |
| CCc1cc(N[C@H]2CC[C@@H](Oc3cc(N4CCOCC4)cc4nccnc34)CC2)nc(C)n1 [Compound 597] | < 100 |
| Cc1ncncc1N[C@H]1CC[C@@H](Oc2cc(N3CCOCC3)cc3nccnc23)CC1 [Compound 448] | < 100 |
| CN1CCN(CCc2cnc(N[C@H]3CC[C@@H](Oc4cc(N5CCOCC5)cc5nccnc45)CC3)nc2)CC1 [Compound 430] | < 100 |
| CCc1ncnc(N[C@H]2CC[C@@H](Oc3cc(N4CC5CC(C4)O5)cc4nccnc34)CC2)c1F [Compound 318] | < 100 |
| CNC(=O)c1cccc(N[C@H]2CC[C@@H](Oc3cc(N4CCOCC4)cc4nccnc34)CC2)n1 [Compound 406] | < 100 |
| COc1nccnc1N[C@H]1CC[C@@H](Oc2cc(N3CCOCC3)cc3nccnc23)CC1 [Compound 312] | < 100 |
| Cc1csc(N[C@H]2CC[C@@H](Oc3cc(N4CCOCC4)cc4nccnc34)CC2)n1 [Compound 284] | < 100 |
| CN(C)c1ccnc(N[C@H]2CC[C@@H](Oc3cc(N4CCOCC4)cc4nccnc34)CC2)n1 [Compound 489] | < 100 |
| CN1CCC(Nc2ncnc(N[C@H]3CC[C@@H](Oc4cc(N5CCOCC5)cc5nccnc45)CC3)c2F)C1 (stereo partly shown) [Compound 381] | < 100 |
| c1cc2c(c(N[C@H]3CC[C@@H](Oc4cc(N5CCOCC5)cc5nccnc45)CC3)n1)CCN2 [Compound 371] | < 100 |
| Clc1cc(N[C@H]2CC[C@@H](Oc3cc(N4CCOCC4)cc4nccnc34)CC2)nc(C2CC2)n1 [Compound 605] | < 100 |
| Clc1nc(N[C@H]2CC[C@@H](Oc3cc(N4CCOCC4)cc4nccnc34)CC2)nc2[nH]ccc12 [Compound 501] | < 100 |
| Cc1cn(C)c(N[C@H]2CC[C@@H](Oc3cc(N4CCOCC4)cc4nccnc34)CC2)n1 [Compound 646] | < 100 |
| Cn1nnnc1-c1cnc(N[C@H]2CC[C@@H](Oc3cc(N4CCOCC4)cc4nccnc34)CC2)nc1 [Compound 459] | < 100 |
| CN1CCc2nc(N[C@H]3CC[C@@H](Oc4cc(N5CCOCC5)cc5nccnc45)CC3)ncc2C1 [Compound 632] | < 100 |
| Cc1cc(N[C@H]2CC[C@@H](Oc3cc(N4CCOCC4)cc4nccnc34)CC2)nn1C [Compound 326] | < 100 |
| Cc1cc(N[C@H]2CC[C@@H](Oc3cc(N4CCOCC4)cc4nccnc34)CC2)ccn1 [Compound 285] | < 100 |
